Some results are limits rather than exact numbers.

As usually defined, the AC50 is the concentration at which the activity in the assay is half-maximal.

For one assay, the target named is Adenosine receptor A2a (Homo sapiens, UniProt P29274).
In assay [1] the target is T1, Alpha-2A adrenergic receptor (Homo sapiens, UniProt P08913).
T1 sequence (P08913 whole entry): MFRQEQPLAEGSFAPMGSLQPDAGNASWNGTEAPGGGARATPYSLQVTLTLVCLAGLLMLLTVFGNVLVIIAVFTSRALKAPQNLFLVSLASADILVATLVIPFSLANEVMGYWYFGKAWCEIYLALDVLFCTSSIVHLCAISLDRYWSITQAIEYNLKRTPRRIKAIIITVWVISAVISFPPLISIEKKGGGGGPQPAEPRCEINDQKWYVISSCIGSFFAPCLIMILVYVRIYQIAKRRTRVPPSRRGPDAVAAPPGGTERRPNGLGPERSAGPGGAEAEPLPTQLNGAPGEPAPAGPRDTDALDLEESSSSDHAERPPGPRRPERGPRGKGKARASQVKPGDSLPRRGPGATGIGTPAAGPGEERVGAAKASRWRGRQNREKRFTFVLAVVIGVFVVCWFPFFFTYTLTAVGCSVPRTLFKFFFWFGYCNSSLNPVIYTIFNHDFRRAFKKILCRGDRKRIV
It is filed as functional, cell-based.

For assay [2], the target named is T2, Alpha-2C adrenergic receptor (Homo sapiens, UniProt P18825).
T2 sequence (P18825 whole entry): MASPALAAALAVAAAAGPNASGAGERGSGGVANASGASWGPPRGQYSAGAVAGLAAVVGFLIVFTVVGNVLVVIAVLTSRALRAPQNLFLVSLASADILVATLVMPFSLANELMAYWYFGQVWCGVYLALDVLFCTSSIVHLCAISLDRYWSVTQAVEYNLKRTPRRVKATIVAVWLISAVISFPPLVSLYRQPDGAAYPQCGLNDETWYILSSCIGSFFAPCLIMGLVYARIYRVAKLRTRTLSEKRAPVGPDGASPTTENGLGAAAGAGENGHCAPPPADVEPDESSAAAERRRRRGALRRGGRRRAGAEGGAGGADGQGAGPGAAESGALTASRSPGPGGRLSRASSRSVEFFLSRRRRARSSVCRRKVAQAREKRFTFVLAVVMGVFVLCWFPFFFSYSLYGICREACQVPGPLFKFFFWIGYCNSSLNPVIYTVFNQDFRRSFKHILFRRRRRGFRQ
The assay is classed as functional.

Assay [3] has as its target T3, Type-1 angiotensin II receptor (Homo sapiens, UniProt P30556).
T3 sequence (P30556 whole entry): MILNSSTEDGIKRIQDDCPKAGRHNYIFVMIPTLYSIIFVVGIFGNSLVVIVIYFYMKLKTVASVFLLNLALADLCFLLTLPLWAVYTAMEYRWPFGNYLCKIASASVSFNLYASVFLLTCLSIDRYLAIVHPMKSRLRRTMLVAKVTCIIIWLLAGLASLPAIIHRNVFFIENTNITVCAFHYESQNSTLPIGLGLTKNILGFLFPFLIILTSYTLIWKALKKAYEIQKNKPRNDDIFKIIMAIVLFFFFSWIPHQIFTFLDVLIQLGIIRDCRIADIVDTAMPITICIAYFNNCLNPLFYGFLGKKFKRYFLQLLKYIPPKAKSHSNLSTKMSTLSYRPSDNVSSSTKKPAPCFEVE

Assay [4] deals with Neuronal acetylcholine receptor subunit alpha-4 (Homo sapiens, UniProt P43681).
Sequence of Neuronal acetylcholine receptor subunit alpha-4 (P43681 whole entry): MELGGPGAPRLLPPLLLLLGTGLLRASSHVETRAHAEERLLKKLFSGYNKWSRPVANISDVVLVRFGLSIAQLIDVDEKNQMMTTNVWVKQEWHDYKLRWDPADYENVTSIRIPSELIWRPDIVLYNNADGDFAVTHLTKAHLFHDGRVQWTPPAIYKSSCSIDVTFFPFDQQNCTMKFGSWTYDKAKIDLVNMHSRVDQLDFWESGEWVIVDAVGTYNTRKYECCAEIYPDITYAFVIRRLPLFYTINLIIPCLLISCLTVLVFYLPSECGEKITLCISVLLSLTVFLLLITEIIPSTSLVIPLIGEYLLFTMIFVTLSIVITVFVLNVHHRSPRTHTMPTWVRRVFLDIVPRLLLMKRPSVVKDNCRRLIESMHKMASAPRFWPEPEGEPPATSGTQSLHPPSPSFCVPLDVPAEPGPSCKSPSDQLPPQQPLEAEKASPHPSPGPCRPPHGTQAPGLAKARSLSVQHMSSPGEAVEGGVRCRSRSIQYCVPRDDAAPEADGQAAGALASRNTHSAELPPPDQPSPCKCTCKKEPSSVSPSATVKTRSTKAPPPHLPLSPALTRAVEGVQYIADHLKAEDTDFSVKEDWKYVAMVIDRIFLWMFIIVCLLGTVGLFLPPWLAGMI
The target in assay [5] is Gamma-aminobutyric acid receptor subunit alpha-1 (Rattus norvegicus, UniProt P62813). It is filed as functional.
Sequence of Gamma-aminobutyric acid receptor subunit alpha-1 (P62813 whole entry): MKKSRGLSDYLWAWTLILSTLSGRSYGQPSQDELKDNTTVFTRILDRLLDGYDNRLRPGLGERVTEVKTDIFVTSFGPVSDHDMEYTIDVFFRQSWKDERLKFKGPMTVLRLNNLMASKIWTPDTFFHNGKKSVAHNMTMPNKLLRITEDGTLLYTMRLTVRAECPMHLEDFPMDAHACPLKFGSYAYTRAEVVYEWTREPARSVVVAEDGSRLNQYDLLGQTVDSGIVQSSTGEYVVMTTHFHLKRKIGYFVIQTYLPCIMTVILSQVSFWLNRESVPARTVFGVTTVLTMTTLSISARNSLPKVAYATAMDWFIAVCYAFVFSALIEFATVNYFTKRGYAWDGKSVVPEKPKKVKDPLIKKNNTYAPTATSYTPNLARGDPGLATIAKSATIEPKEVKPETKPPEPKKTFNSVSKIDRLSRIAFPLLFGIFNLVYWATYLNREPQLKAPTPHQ
Assay [6] addresses T4, 5-hydroxytryptamine receptor 2C (Homo sapiens, UniProt P28335).
T4 sequence (P28335 whole entry): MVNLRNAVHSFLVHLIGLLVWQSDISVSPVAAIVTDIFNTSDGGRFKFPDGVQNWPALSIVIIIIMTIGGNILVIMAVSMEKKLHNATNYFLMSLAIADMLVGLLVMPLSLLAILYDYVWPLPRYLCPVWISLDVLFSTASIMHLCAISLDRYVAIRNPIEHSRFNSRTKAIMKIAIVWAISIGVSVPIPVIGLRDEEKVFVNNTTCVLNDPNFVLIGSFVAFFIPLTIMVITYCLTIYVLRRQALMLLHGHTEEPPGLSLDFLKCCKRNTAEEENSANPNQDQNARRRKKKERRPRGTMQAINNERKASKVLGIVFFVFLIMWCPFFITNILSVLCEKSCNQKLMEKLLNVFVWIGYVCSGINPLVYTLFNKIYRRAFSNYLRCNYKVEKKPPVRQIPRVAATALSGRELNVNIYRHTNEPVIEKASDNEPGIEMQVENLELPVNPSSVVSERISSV

For assay [7], the target named is Voltage-gated inwardly rectifying potassium channel KCNH2 (Homo sapiens, UniProt Q12809). The assay is classed as functional. The following applies: read-out: AC50.
Sequence of Voltage-gated inwardly rectifying potassium channel KCNH2 (Q12809 whole entry): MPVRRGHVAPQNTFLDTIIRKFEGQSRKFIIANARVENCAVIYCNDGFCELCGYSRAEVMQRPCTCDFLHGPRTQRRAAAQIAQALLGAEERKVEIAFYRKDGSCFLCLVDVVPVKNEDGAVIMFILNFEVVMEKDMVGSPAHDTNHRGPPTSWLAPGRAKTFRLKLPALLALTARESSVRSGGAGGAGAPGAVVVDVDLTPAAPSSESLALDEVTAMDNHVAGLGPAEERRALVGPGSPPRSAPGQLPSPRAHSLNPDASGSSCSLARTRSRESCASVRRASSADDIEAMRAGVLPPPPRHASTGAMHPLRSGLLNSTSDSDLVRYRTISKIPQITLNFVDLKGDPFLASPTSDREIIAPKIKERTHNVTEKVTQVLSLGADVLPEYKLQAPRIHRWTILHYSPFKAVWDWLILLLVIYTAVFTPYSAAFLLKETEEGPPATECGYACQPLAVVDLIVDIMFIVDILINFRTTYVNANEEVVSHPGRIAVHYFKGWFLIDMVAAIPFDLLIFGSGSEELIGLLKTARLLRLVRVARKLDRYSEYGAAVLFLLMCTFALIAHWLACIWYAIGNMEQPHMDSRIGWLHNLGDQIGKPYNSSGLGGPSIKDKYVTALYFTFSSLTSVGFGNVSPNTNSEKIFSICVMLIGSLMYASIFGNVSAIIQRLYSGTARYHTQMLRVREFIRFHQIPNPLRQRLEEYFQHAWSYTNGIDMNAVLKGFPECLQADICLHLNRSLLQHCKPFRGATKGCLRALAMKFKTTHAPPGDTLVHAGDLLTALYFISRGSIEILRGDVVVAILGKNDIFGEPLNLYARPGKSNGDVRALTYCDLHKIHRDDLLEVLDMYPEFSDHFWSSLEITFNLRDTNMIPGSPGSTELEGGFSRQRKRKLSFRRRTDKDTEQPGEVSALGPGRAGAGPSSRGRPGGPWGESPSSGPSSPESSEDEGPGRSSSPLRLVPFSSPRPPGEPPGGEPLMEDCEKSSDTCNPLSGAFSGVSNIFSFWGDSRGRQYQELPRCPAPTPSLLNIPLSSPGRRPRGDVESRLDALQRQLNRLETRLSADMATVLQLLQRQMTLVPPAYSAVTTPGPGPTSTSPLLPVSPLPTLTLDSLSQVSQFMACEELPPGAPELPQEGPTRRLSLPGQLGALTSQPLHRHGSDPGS
A further assay has as its target Melanocortin receptor 3 (Homo sapiens, UniProt P41968).
Assay [8] concerns the target Sodium-dependent noradrenaline transporter (Homo sapiens, UniProt P23975).
The target of assay [9] is T5, Amine oxidase [flavin-containing] A (Homo sapiens, UniProt P21397).
T5 sequence (P21397 whole entry): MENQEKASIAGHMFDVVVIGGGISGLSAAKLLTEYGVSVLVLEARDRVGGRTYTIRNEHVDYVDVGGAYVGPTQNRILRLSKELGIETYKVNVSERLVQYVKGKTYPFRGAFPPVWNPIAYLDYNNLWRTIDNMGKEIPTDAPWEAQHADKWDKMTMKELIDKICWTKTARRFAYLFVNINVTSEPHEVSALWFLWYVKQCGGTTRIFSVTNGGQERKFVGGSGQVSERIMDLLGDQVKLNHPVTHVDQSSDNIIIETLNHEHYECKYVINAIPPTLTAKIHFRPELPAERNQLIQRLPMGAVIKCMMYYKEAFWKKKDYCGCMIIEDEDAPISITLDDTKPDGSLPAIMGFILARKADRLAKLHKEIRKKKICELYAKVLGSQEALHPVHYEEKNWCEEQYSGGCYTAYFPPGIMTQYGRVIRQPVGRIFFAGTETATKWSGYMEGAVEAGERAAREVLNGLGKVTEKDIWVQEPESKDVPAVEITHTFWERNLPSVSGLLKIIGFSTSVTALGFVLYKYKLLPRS
The assay is classed as functional.
Further: assay procedure not described here.

Sequence of Adenosine receptor A2a (P29274 whole entry): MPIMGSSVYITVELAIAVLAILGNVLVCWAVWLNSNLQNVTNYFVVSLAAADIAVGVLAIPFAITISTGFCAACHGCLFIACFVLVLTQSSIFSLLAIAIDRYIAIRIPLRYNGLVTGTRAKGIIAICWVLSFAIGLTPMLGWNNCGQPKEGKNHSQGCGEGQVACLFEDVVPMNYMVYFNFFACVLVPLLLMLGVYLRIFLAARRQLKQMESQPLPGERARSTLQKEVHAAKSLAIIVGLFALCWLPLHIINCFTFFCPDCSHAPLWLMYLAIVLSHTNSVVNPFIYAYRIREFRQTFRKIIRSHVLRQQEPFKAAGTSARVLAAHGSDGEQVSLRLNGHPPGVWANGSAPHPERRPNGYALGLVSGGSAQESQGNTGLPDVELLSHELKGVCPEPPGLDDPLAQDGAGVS
Sequence of Sodium-dependent noradrenaline transporter (P23975 whole entry): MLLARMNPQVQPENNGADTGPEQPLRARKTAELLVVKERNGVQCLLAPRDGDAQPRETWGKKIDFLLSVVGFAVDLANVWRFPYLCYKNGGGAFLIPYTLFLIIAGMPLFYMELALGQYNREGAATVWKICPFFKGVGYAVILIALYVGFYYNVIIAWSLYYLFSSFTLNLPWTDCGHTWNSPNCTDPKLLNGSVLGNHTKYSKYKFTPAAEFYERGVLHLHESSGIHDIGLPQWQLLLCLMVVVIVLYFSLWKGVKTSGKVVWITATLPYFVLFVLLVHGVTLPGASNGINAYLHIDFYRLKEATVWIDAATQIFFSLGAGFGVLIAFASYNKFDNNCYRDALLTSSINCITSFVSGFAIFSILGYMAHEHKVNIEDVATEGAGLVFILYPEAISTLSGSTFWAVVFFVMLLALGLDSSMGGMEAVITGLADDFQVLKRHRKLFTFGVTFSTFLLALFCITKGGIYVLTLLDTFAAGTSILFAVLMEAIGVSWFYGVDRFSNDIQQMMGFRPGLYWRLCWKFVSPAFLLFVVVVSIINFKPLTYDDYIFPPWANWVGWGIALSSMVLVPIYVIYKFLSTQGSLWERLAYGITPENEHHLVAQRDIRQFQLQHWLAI
Sequence of Melanocortin receptor 3 (P41968 whole entry): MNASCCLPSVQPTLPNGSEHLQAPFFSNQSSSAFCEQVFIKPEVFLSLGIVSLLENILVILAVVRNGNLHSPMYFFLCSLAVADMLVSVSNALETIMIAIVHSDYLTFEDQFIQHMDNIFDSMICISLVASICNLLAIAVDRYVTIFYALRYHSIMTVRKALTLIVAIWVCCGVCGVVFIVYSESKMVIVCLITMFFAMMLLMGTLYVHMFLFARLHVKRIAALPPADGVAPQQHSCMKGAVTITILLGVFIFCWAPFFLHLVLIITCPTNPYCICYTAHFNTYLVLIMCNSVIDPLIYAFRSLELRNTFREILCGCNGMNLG

With `C[C@@H]1O[C@@H]1P(=O)(O)O` [FOSFOMYCIN], the concentration at half-maximal activity (AC50) (at Adenosine receptor A2a; in assay [1]; in [2]; in assay [3]; in assay [4]; in assay [5]) was greater than 10 µM each time. Also, the AC50 in assay [6] is greater than 30 µM; in assay [7], greater than 30 µM; on Melanocortin receptor 3 it was greater than 10 µM; in [8], greater than 10 µM; in assay [9], greater than 10 µM.
With `COc1ccc2c(c1)C(=O)N(CCc1ccc(S(=O)(=O)NC(=O)NC3CCCCC3)cc1)C(=O)C2(C)C` [GLIQUIDONE], the AC50 (on Adenosine receptor A2a; in assay [1]; in [2]; in [3]; in assay [4]; in assay [5]) was greater than 30 µM throughout. The AC50 (in [6]; in assay [7]; on Melanocortin receptor 3; in assay [8]; in assay [9]) was greater than 30 µM each time.
Regarding `NS(=O)(=O)c1cc2c(cc1Cl)NCNS2(=O)=O` [HYDROCHLOROTHIAZIDE], the AC50 on Adenosine receptor A2a was greater than 30 µM; in [1], greater than 10 µM; in assay [2] it was greater than 10 µM; in [3] it was greater than 30 µM; in [4], greater than 10 µM; in assay [5] it was greater than 10 µM. The half-maximal activity concentration (AC50) was greater than 10 µM in assay [6]; greater than 30 µM in [7]; greater than 30 µM on Melanocortin receptor 3; greater than 10 µM in assay [8]; greater than 10 µM in [9].
Regarding `CC(C)Cc1ccc(CC(=O)O)cc1` [IBUFENAC], the AC50 (at Adenosine receptor A2a; in [1]; in [2]; in [3]; in assay [4]; in assay [5]) was greater than 30 µM each time. Further, the half-maximal activity concentration (AC50) (in assay [6]; in assay [7]; on Melanocortin receptor 3; in assay [8]; in assay [9]) was greater than 30 µM in each case.
As for `NC[C@H]1O[C@H](O[C@H]2[C@H](O)[C@@H](O[C@H]3O[C@H](CO)[C@@H](O)[C@H](N)[C@H]3O)[C@H](N)C[C@@H]2N)[C@H](O)[C@@H](O)[C@@H]1O` [KANAMYCIN], the AC50 on Adenosine receptor A2a is greater than 10 µM; in [1], greater than 10 µM; in assay [2], greater than 30 µM; in assay [3], greater than 10 µM; in assay [4], greater than 10 µM; in assay [5] it was greater than 10 µM. Besides, the AC50 in assay [6] was greater than 30 µM; in assay [7], greater than 30 µM; on Melanocortin receptor 3, greater than 10 µM; in [8] it was greater than 10 µM; in [9] it was greater than 30 µM.
Turning to `CN1C(=O)CC(C)(c2ccccc2)C1=O` (configuration not stated) [METHSUXIMIDE], the concentration at half-maximal activity (AC50) (at Adenosine receptor A2a; in [1]; in [2]; in [3]; in assay [4]; in assay [5]) was greater than 10 µM each time. Besides, the AC50 in assay [6] is greater than 30 µM; in [7] it was greater than 30 µM; on Melanocortin receptor 3, greater than 10 µM; in assay [8], greater than 10 µM; in [9] it was greater than 10 µM.
Consider `C[C@H]1C[C@@H]2[C@H]([C@@H](O)C[C@@]3(C)[C@H]2CC[C@]3(O)C(=O)CO)[C@@]2(C)C=CC(=O)C=C12` [METHYLPREDNISOLONE], for which the AC50 at Adenosine receptor A2a is greater than 10 µM; in assay [1] it was greater than 10 µM; in [2] it was greater than 30 µM; in [3] it was greater than 10 µM; in assay [4], greater than 10 µM; in assay [5], greater than 10 µM. In addition, the AC50 was greater than 30 µM in assay [6]; greater than 30 µM in assay [7]; greater than 10 µM at Melanocortin receptor 3; greater than 10 µM in assay [8]; greater than 30 µM in assay [9].
As for `CCN(CC)CCNC(=O)c1cc(Cl)c(N)cc1OC` [METOCLOPRAMIDE], the AC50 on Adenosine receptor A2a is greater than 30 µM; in assay [1], greater than 10 µM; in [2], 3 µM; in assay [3], greater than 30 µM; in assay [4], greater than 10 µM; in assay [5] it was greater than 10 µM. For the same compound, the AC50 was greater than 10 µM in assay [6]; 2.77 µM in assay [7]; greater than 30 µM at Melanocortin receptor 3; greater than 10 µM in assay [8]; greater than 10 µM in assay [9].
Consider `CC(C)(C(=O)c1cccnc1)c1cccnc1` [METYRAPONE], for which the AC50 (on Adenosine receptor A2a; in assay [1]; in assay [2]; in assay [3]; in [4]; in assay [5]) was greater than 10 µM throughout. For the same compound, the AC50 in assay [6] was greater than 30 µM; in assay [7], greater than 30 µM; at Melanocortin receptor 3, greater than 10 µM; in assay [8], greater than 10 µM; in assay [9] it was greater than 10 µM.
Consider `NC(=O)c1ncn([C@@H]2O[C@H](CO)[C@@H](O)[C@H]2O)c1O` [MIZORIBINE], for which the half-maximal activity concentration (AC50) on Adenosine receptor A2a was greater than 30 µM; in [1], greater than 30 µM; in [2], greater than 30 µM; in assay [3] it was greater than 30 µM; in [4], greater than 30 µM; in assay [5], greater than 10 µM. Besides, the AC50 (in assay [6]; in assay [7]; on Melanocortin receptor 3; in [8]; in [9]) was greater than 30 µM in each case.
Consider `OCCN1CCN(CCCN2c3ccccc3C=Cc3ccccc32)CC1` [OPIPRAMOL], for which the half-maximal activity concentration (AC50) was greater than 30 µM at Adenosine receptor A2a; greater than 30 µM in assay [1]; 6.7 µM in [2]; greater than 30 µM in assay [3]; greater than 30 µM in [4]; greater than 30 µM in assay [5]. Further, the AC50 was greater than 30 µM in assay [6]; 14 µM in assay [7]; greater than 30 µM at Melanocortin receptor 3; greater than 30 µM in assay [8]; greater than 30 µM in [9].
As for `NC1=NC(=O)C(c2ccccc2)O1` (configuration not stated) [PEMOLINE], the AC50 at Adenosine receptor A2a is greater than 30 µM; in [1] it was greater than 10 µM; in assay [2] it was greater than 10 µM; in assay [3] it was greater than 30 µM; in [4], greater than 10 µM; in assay [5], greater than 10 µM. For the same compound, the AC50 was greater than 30 µM in assay [6]; greater than 30 µM in assay [7]; greater than 30 µM on Melanocortin receptor 3; greater than 30 µM in [8]; greater than 10 µM in assay [9].

The values above are taken from ChEMBL document CHEMBL5291721, “A preclinical secondary pharmacology resource illuminates target-adverse drug reaction associations of marketed drugs” (Nat Commun, 2023).
